Measured values as given in patent publication US20050070510A1, “Substituted tetracycline compounds as synergistic antifungal agents” (Paratek Pharmaceuticals, Inc., priority 2001, published 2005).

What follows are compounds tested on COS-1 cells (assay: In vitro mammalian cytotoxicity assay (Resazurin)).

`COc1ccc(CNCc2cccc(Cl)c2)cc1-c1ccc(O)c2c1C[C@@]1(N)C[C@@]3(N)[C@H](N(C)C)C(O)=C(C(N)=O)C(=O)[C@@]3(C#N)C(O)=C1C2=O` [NJ] was tested. Which “In Vitro Cytotoxicity” value did it give?
The value was “** (toxicities less than 25 μg/mL are represented by **)”.

`CCOC(=O)CNCc1ccc(OC)c(-c2ccc(O)c3c2C[C@@]2(N)C[C@@]4(N)[C@H](N(C)C)C(O)=C(C(N)=O)C(=O)[C@@]4(C#N)C(O)=C2C3=O)c1` [NK] was tested. Which “In Vitro Cytotoxicity” value did it give?
The value was “* (toxicities greater than >25 μg/ml are represented by *)”.

Which “In Vitro Cytotoxicity” value does the source give for `CCCCOCCCNCc1ccc(OC)c(-c2ccc(O)c3c2C[C@@]2(N)C[C@@]4(N)[C@H](N(C)C)C(O)=C(C(N)=O)C(=O)[C@@]4(C#N)C(O)=C2C3=O)c1` [NL] here?
The value was “* (toxicities greater than >25 μg/ml are represented by *)”.

Which “In Vitro Cytotoxicity” value does the source give for `CN(C)[C@@H]1C(O)=C(C(N)=O)C(=O)[C@@]2(C#N)C(O)=C3C(=O)c4c(O)ccc(-c5ccc(C(=O)O)c6ccccc56)c4C[C@@]3(N)C[C@@]12N` [NM] here?
Its value is “** (toxicities less than 25 μg/mL are represented by **)”.

With `CC(=O)C(N)c1cc(C(C)(C)C)c(O)c2c1C[C@@]1(N)C[C@@]3(N)[C@H](N(C)C)C(O)=C(C(N)=O)C(=O)[C@@]3(C#N)C(O)=C1C2=O` (some centres unmarked) [NN] as the compound, how does the “In Vitro Cytotoxicity” value read?
The value was “* (toxicities greater than >25 μg/ml are represented by *)”.

With `CC(C)COC(=O)NCc1ccc(O)c2c1C[C@@]1(N)C[C@@]3(N)[C@H](N(C)C)C(O)=C(C(N)=O)C(=O)[C@@]3(C#N)C(O)=C1C2=O` [NO] as the compound, how does the “In Vitro Cytotoxicity” value read?
The value was “** (toxicities less than 25 μg/mL are represented by **)”.

With `CN(C)[C@@H]1C(O)=C(C(N)=O)C(=O)[C@@]2(C#N)C(O)=C3C(=O)c4c(O)ccc(CNC(=O)OCC(C)(C)C)c4C[C@@]3(N)C[C@@]12N` [NP] as the compound, how does the “In Vitro Cytotoxicity” value read?
Its value is “** (toxicities less than 25 μg/mL are represented by **)”.

`CN(C)[C@@H]1C(O)=C(C(N)=O)C(=O)[C@@]2(C#N)C(O)=C3C(=O)c4c(O)c(F)cc(CN)c4C[C@@]3(N)C[C@@]12N` [NQ] was tested. Which “In Vitro Cytotoxicity” value did it give?
Its value is “** (toxicities less than 25 μg/mL are represented by **)”.

`CN(C)[C@@H]1C(O)=C(C(N)=O)C(=O)[C@@]2(C#N)C(O)=C3C(=O)c4c(O)c(C(C)(C)C)cc(I)c4C[C@@]3(N)C[C@@]12N` [NR] was tested. Which “In Vitro Cytotoxicity” value did it give?
Its value is “** (toxicities less than 25 μg/mL are represented by **)”.

With `CC(C)COC(=O)NCc1ccc(-c2ccc(O)c3c2C[C@@]2(N)C[C@@]4(N)[C@H](N(C)C)C(O)=C(C(N)=O)C(=O)[C@@]4(C#N)C(O)=C2C3=O)cc1` [NS] as the compound, how does the “In Vitro Cytotoxicity” value read?
Its value is “** (toxicities less than 25 μg/mL are represented by **)”.

For `CN(C)[C@@H]1C(O)=C(C(N)=O)C(=O)[C@@]2(C#N)C(O)=C3C(=O)c4c(O)c(C(C)(C)C)cc(-c5ccc6c(c5)OCO6)c4C[C@@]3(N)C[C@@]12N` [NT], which “In Vitro Cytotoxicity” value is on record?
The value was “** (toxicities less than 25 μg/mL are represented by **)”.

For `CN(C)[C@@H]1C(O)=C(C(N)=O)C(=O)[C@@]2(C#N)C(O)=C3C(=O)c4c(O)ccc(-c5cc6ccccc6o5)c4C[C@@]3(N)C[C@@]12N` [NW], which “In Vitro Cytotoxicity” value is on record?
Its value is “** (toxicities less than 25 μg/mL are represented by **)”.

With `CN(C)CC(=O)NCc1ccc(-c2ccc(O)c3c2C[C@@]2(N)C[C@@]4(N)[C@H](N(C)C)C(O)=C(C(N)=O)C(=O)[C@@]4(C#N)C(O)=C2C3=O)cc1` [NY] as the compound, how does the “In Vitro Cytotoxicity” value read?
Its value is “** (toxicities less than 25 μg/mL are represented by **)”.

With `CCOC(=O)C(NCc1ccc(OC)c(-c2ccc(O)c3c2C[C@@]2(N)C[C@@]4(N)[C@H](N(C)C)C(O)=C(C(N)=O)C(=O)[C@@]4(C#N)C(O)=C2C3=O)c1)C(C)C` (some centres unmarked) [NZ] as the compound, how does the “In Vitro Cytotoxicity” value read?
Its value is “** (toxicities less than 25 μg/mL are represented by **)”.

How did the “In Vitro Cytotoxicity” value turn out when `COC(=O)C(CC(C)C)NCc1ccc(OC)c(-c2ccc(O)c3c2C[C@@]2(N)C[C@@]4(N)[C@H](N(C)C)C(O)=C(C(N)=O)C(=O)[C@@]4(C#N)C(O)=C2C3=O)c1` (some centres unmarked) [OA] was run?
The value was “** (toxicities less than 25 μg/mL are represented by **)”.

Which “In Vitro Cytotoxicity” value does the source give for `CCOC(=O)C(Cc1ccccc1)NCc1ccc(OC)c(-c2ccc(O)c3c2C[C@@]2(N)C[C@@]4(N)[C@H](N(C)C)C(O)=C(C(N)=O)C(=O)[C@@]4(C#N)C(O)=C2C3=O)c1` (some centres unmarked) [OB] here?
The value was “** (toxicities less than 25 μg/mL are represented by **)”.

For `CC(C)COC(=O)Nc1ccc(-c2ccc(O)c3c2C[C@@]2(N)C[C@@]4(N)[C@H](N(C)C)C(O)=C(C(N)=O)C(=O)[C@@]4(C#N)C(O)=C2C3=O)cc1` [OD], which “In Vitro Cytotoxicity” value is on record?
Its value is “** (toxicities less than 25 μg/mL are represented by **)”.

For `CC(C)NCc1ccc(-c2ccc(O)c3c2C[C@@]2(N)C[C@@]4(N)[C@H](N(C)C)C(O)=C(C(N)=O)C(=O)[C@@]4(C#N)C(O)=C2C3=O)c2ccccc12` [OE], which “In Vitro Cytotoxicity” value is on record?
The value was “** (toxicities less than 25 μg/mL are represented by **)”.

How did the “In Vitro Cytotoxicity” value turn out when `CN(C)[C@@H]1C(O)=C(C(N)=O)C(=O)[C@@]2(C#N)C(O)=C3C(=O)c4c(O)ccc(-c5ccc(CNCCc6ccc(Cl)cc6)cc5)c4C[C@@]3(N)C[C@@]12N` [OF] was run?
Its value is “** (toxicities less than 25 μg/mL are represented by **)”.

For `CN(C)[C@@H]1C(O)=C(C(N)=O)C(=O)[C@@]2(C#N)C(O)=C3C(=O)c4c(O)ccc(-c5ccc(CNCc6cccc(F)c6)cc5)c4C[C@@]3(N)C[C@@]12N` [OG], which “In Vitro Cytotoxicity” value is on record?
The value was “** (toxicities less than 25 μg/mL are represented by **)”.

With `CN(C)CC#Cc1cc(C(C)(C)C)c(O)c2c1C[C@@]1(N)C[C@@]3(N)[C@H](N(C)C)C(O)=C(C(N)=O)C(=O)[C@@]3(C#N)C(O)=C1C2=O` [OH] as the compound, how does the “In Vitro Cytotoxicity” value read?
The value was “** (toxicities less than 25 μg/mL are represented by **)”.

For `CC(C)c1cccc(-c2ccc(O)c3c2C[C@@]2(N)C[C@@]4(N)[C@H](N(C)C)C(O)=C(C(N)=O)C(=O)[C@@]4(C#N)C(O)=C2C3=O)c1` [OI], which “In Vitro Cytotoxicity” value is on record?
The value was “** (toxicities less than 25 μg/mL are represented by **)”.

`Cc1ccc(-c2ccc(O)c3c2C[C@@]2(N)C[C@@]4(N)[C@H](N(C)C)C(O)=C(C(N)=O)C(=O)[C@@]4(C#N)C(O)=C2C3=O)cc1C` [OJ] was tested. Which “In Vitro Cytotoxicity” value did it give?
The value was “** (toxicities less than 25 μg/mL are represented by **)”.

For `COc1cc(-c2ccc(O)c3c2C[C@@]2(N)C[C@@]4(N)[C@H](N(C)C)C(O)=C(C(N)=O)C(=O)[C@@]4(C#N)C(O)=C2C3=O)cc(OC)c1OC` [OK], which “In Vitro Cytotoxicity” value is on record?
The value was “** (toxicities less than 25 μg/mL are represented by **)”.

For `COc1ccc2c(c1)cc1c3c(c(O)ccc32)C(=O)C2=C(O)[C@]3(C#N)C(=O)C(C(N)=O)=C(O)[C@@H](N(C)C)[C@]3(N)C[C@@]21N` [OL], which “In Vitro Cytotoxicity” value is on record?
The value was “** (toxicities less than 25 μg/mL are represented by **)”.

`COc1ccc(-c2ccc(O)c3c2C[C@@]2(N)C[C@@]4(N)[C@H](N(C)C)C(O)=C(C(N)=O)C(=O)[C@@]4(C#N)C(O)=C2C3=O)c(OC)c1` [OM] was tested. Which “In Vitro Cytotoxicity” value did it give?
The value was “** (toxicities less than 25 μg/mL are represented by **)”.

How did the “In Vitro Cytotoxicity” value turn out when `CN(C)[C@@H]1C(O)=C(C(N)=O)C(=O)[C@@]2(C#N)C(O)=C3C(=O)c4c(O)ccc(-c5ccc(CN6CCOCC6)c6ccccc56)c4C[C@@]3(N)C[C@@]12N` [ON] was run?
The value was “** (toxicities less than 25 μg/mL are represented by **)”.

`CN(C)[C@@H]1C(O)=C(C(N)=O)C(=O)[C@@]2(C#N)C(O)=C3C(=O)c4c(O)ccc(-c5ccc(CN6CCCC6)c6ccccc56)c4C[C@@]3(N)C[C@@]12N` [OO] was tested. Which “In Vitro Cytotoxicity” value did it give?
The value was “** (toxicities less than 25 μg/mL are represented by **)”.

Which “In Vitro Cytotoxicity” value does the source give for `CCCN(CCC)Cc1ccc(-c2ccc(O)c3c2C[C@@]2(N)C[C@@]4(N)[C@H](N(C)C)C(O)=C(C(N)=O)C(=O)[C@@]4(C#N)C(O)=C2C3=O)c2ccccc12` [OP] here?
Its value is “** (toxicities less than 25 μg/mL are represented by **)”.

For `CCOC(=O)CNCc1ccc(-c2ccc(O)c3c2C[C@@]2(N)C[C@@]4(N)[C@H](N(C)C)C(O)=C(C(N)=O)C(=O)[C@@]4(C#N)C(O)=C2C3=O)c2ccccc12` [OQ], which “In Vitro Cytotoxicity” value is on record?
Its value is “** (toxicities less than 25 μg/mL are represented by **)”.

With `CCOc1ccc(-c2ccc(O)c3c2C[C@@]2(N)C[C@@]4(N)[C@H](N(C)C)C(O)=C(C(N)=O)C(=O)[C@@]4(C#N)C(O)=C2C3=O)cc1CN` [OR] as the compound, how does the “In Vitro Cytotoxicity” value read?
Its value is “* (toxicities greater than >25 μg/ml are represented by *)”.

For `CCOC(=O)CNCc1ccc(-c2ccc(O)c3c2C[C@@]2(N)C[C@@]4(N)[C@H](N(C)C)C(O)=C(C(N)=O)C(=O)[C@@]4(C#N)C(O)=C2C3=O)cc1` [OS], which “In Vitro Cytotoxicity” value is on record?
Its value is “** (toxicities less than 25 μg/mL are represented by **)”.

For `CC(C)NCc1ccc(-c2ccc(O)c3c2C[C@@]2(N)C[C@@]4(N)[C@H](N(C)C)C(O)=C(C(N)=O)C(=O)[C@@]4(C#N)C(O)=C2C3=O)cc1` [OT], which “In Vitro Cytotoxicity” value is on record?
The value was “* (toxicities greater than >25 μg/ml are represented by *)”.

For `CN(C)[C@@H]1C(O)=C(C(N)=O)C(=O)[C@@]2(C#N)C(O)=C3C(=O)c4c(O)c(C(C)(C)C)cc(-c5cnc6ccccc6c5)c4C[C@@]3(N)C[C@@]12N` [OV], which “In Vitro Cytotoxicity” value is on record?
The value was “* (toxicities greater than >25 μg/ml are represented by *)”.

How did the “In Vitro Cytotoxicity” value turn out when `COc1ccc(C=O)cc1-c1ccc(O)c2c1C[C@@]1(N)C[C@@]3(N)[C@H](N(C)C)C(O)=C(C(N)=O)C(=O)[C@@]3(C#N)C(O)=C1C2=O` [OW] was run?
Its value is “* (toxicities greater than >25 μg/ml are represented by *)”.

With `CN(C)c1ccc(-c2cc(F)c(O)c3c2C[C@@]2(N)C[C@@]4(N)[C@H](N(C)C)C(O)=C(C(N)=O)C(=O)[C@@]4(C#N)C(O)=C2C3=O)cc1` [OX] as the compound, how does the “In Vitro Cytotoxicity” value read?
The value was “** (toxicities less than 25 μg/mL are represented by **)”.

`CN(C)c1ccc(-c2ccc3c(c2O)C(=O)C2=C(O)[C@]4(C#N)C(=O)C(C(N)=O)=C(O)[C@@H](N(C)C)[C@]4(N)[C@@H](O)[C@]2(N)[C@H]3O)cc1` [OY] was tested. Which “In Vitro Cytotoxicity” value did it give?
Its value is “** (toxicities less than 25 μg/mL are represented by **)”.

Which “In Vitro Cytotoxicity” value does the source give for `C=CCOC(=O)Nc1ccc(-c2ccc(O)c3c2C[C@@]2(N)C[C@@]4(N)[C@H](N(C)C)C(O)=C(C(N)=O)C(=O)[C@@]4(C#N)C(O)=C2C3=O)cc1` [OZ] here?
The value was “** (toxicities less than 25 μg/mL are represented by **)”.

`CN(C)[C@@H]1C(O)=C(C(N)=O)C(=O)[C@@]2(C#N)C(O)=C3C(=O)c4c(O)ccc(-c5ccc(NC(=O)C6CC6)cc5)c4C[C@@]3(N)C[C@@]12N` [PB] was tested. Which “In Vitro Cytotoxicity” value did it give?
Its value is “* (toxicities greater than >25 μg/ml are represented by *)”.

Which “In Vitro Cytotoxicity” value does the source give for `CN(C)CCNC(=O)c1ccc(-c2ccc(O)c3c2C[C@@]2(N)C[C@@]4(N)[C@H](N(C)C)C(O)=C(C(N)=O)C(=O)[C@@]4(C#N)C(O)=C2C3=O)cc1` [PC] here?
Its value is “* (toxicities greater than >25 μg/ml are represented by *)”.

`CCNC(=O)CNC(=O)c1cccc(-c2ccc(O)c3c2C[C@@]2(N)C[C@@]4(N)[C@H](N(C)C)C(O)=C(C(N)=O)C(=O)[C@@]4(C#N)C(O)=C2C3=O)c1` [PD] was tested. Which “In Vitro Cytotoxicity” value did it give?
The value was “* (toxicities greater than >25 μg/ml are represented by *)”.
